The source of these data is patent publication EP0299434B1, “High pH recovery of neutral amino acids” (GENENCOR INTERNATIONAL, INC., priority 1987, dated 1989).

The term pKa denotes the negative logarithm of the acid dissociation constant. Read a low pKa as a stronger acid or weaker base.

A short description of this data set: solution pKa (pH at which the solubility versus pH curve changes slope). Format: physicochemical. From the text:
The theoretical pKa of a neutral amino acid is a rigorously defined parameter which is independent of temperature and the presence of other components. In accordance with the present invention, the important pKa is the solution pKa which takes into account the actual characteristics of the solution. Thus, the pKa of the neutral amino acid in the actual solution from which it is desired to precipitate the amino acid must be measured. The "solution pKa" is the pH at which the solubility versus pH curve for the solution in question changes slope. For example, if the log of the concentration at saturation is plotted versus pH, two straight line portions of the curve will be noted. The intersection of these straight line portions when extended is considered to be the solution pKa of this solution under the conditions of the test. The solution pKa will depend on the other components in the solution, for example the base that might be present, the temperature and other factors.

`N[C@@H](Cc1c[nH]c2ccccc12)C(=O)O` [tryptophan]: the pKa was roughly 8.9 (ion exchange eluate concentrated by reverse osmosis, 37°C, ion exchange eluate concentrated by reverse osmosis (Example 4)); roughly 8.2 (ion exchange eluate evaporated at 60°C, ion exchange eluate evaporated at 60°C (Example 6)); 9 (ion exchange eluate redissolved with ammonium hydroxide, 30°C, ammonia stripping); 8.8 (ion exchange eluate redissolved with ammonium hydroxide, 39°C, ammonia stripping); 8.4 (ion exchange eluate redissolved with ammonium hydroxide, 55°C, ammonia stripping); roughly 9.2 (saturation curve of Fig. 1).
